In ChEMBL document CHEMBL3885861, “Open TG-GATES”:

Species on record: Rattus norvegicus
Test: Open TG-GATES - Regimen: Single
Assay type: toxicity, organism-based, Sprague-Dawley
Parameters: regimen Single, gender Male, age 6 weeks
Settings: in vivo, po, route gavage; for APTT / Bas / Eos / Fbg / Hb / Ht / Lym / MCH / MCHC / MCV / Mono / Neu / PT / Plat / RBC / Ret / WBC: tissue Blood; for KIDNEY_L / KIDNEY_R / KIDNEY_TOTAL: tissue Kidney; for LIVER: tissue Liver
[1] = 100 mg/kg, 3 h, tissue Plasma, dose level Low
[2] = 100 mg/kg, 6 h, tissue Plasma, dose level Low
[3] = 100 mg/kg, 9 h, tissue Plasma, dose level Low
[4] = 100 mg/kg, 24 h, dose level Low
[5] = 100 mg/kg, 24 h, tissue Plasma, dose level Low

C[C@H](CS)C(=O)N1CCC[C@H]1C(=O)O [CAPTOPRIL]
gamma-GTP (0 mg/kg, 24 h, tissue Plasma, dose level Control): 1 IU/L
TERMINAL_BW (100 mg/kg, 3 h, dose level Low): 224.3 g
APTT (100 mg/kg, 3 h, dose level Low): 16.3 s
Bas (100 mg/kg, 3 h, dose level Low): 0%
Eos (100 mg/kg, 3 h, dose level Low): 1%
Fbg (100 mg/kg, 3 h, dose level Low): 207 mg/dL
Hb (100 mg/kg, 3 h, dose level Low): 13.1 g/dL
Ht (100 mg/kg, 3 h, dose level Low): 40.2%
Lym (100 mg/kg, 3 h, dose level Low): 82.2%
MCH (100 mg/kg, 3 h, dose level Low): 21.1 pg
MCHC (100 mg/kg, 3 h, dose level Low): 32.7%
MCV (100 mg/kg, 3 h, dose level Low): 64.4 fL
Mono (100 mg/kg, 3 h, dose level Low): 4.8%
Neu (100 mg/kg, 3 h, dose level Low): 12.2%
PT (100 mg/kg, 3 h, dose level Low): 11.9 s
Plat (100 mg/kg, 3 h, dose level Low): 123.2 x10_4/uL
RBC (100 mg/kg, 3 h, dose level Low): 624.2 x10_4/ul
Ret (100 mg/kg, 3 h, dose level Low): 7.4%
KIDNEY_L (100 mg/kg, 3 h, dose level Low): 1 g
KIDNEY_R (100 mg/kg, 3 h, dose level Low): 1 g
KIDNEY_TOTAL (100 mg/kg, 3 h, dose level Low): 2.1 g
ALP [1]: 996 IU/L
ALT [1]: 35.6 IU/L
AST [1]: 67 IU/L
BUN [1]: 13.8 mg/dL
CRE [1]: 0.5 mg/dL
DBIL [1]: 0.008 mg/dL
GLC [1]: 205.2 mg/dL
IP [1]: 9.7 mg/dL
K [1]: 4.9 meq/L
LDH [1]: 113.6 IU/L
Na [1]: 137.8 meq/L
PL [1]: 131.8 mg/dL
RALB [1]: 3.6 g/dL
TBIL [1]: 0.4 mg/dL
TC [1]: 70.4 mg/dL
TG [1]: 68 mg/dL
TP [1]: 5.5 g/dL
gamma-GTP [1]: 2 IU/L
TERMINAL_BW (100 mg/kg, 6 h, dose level Low): 225.5 g
APTT (100 mg/kg, 6 h, dose level Low): 16.3 s
Bas (100 mg/kg, 6 h, dose level Low): 0%
Eos (100 mg/kg, 6 h, dose level Low): 1%
Hb (100 mg/kg, 6 h, dose level Low): 12.9 g/dL
Ht (100 mg/kg, 6 h, dose level Low): 39.5%
Lym (100 mg/kg, 6 h, dose level Low): 76.4%
MCH (100 mg/kg, 6 h, dose level Low): 21.8 pg
MCHC (100 mg/kg, 6 h, dose level Low): 32.8%
MCV (100 mg/kg, 6 h, dose level Low): 66.5 fL
Mono (100 mg/kg, 6 h, dose level Low): 5.8%
Neu (100 mg/kg, 6 h, dose level Low): 17%
PT (100 mg/kg, 6 h, dose level Low): 12.2 s
Plat (100 mg/kg, 6 h, dose level Low): 113.6 x10_4/uL
RBC (100 mg/kg, 6 h, dose level Low): 595.2 x10_4/ul
Ret (100 mg/kg, 6 h, dose level Low): 7.9%
WBC (100 mg/kg, 6 h, dose level Low): 126.2 x10_2/uL
KIDNEY_L (100 mg/kg, 6 h, dose level Low): 1.1 g
KIDNEY_R (100 mg/kg, 6 h, dose level Low): 1.1 g
KIDNEY_TOTAL (100 mg/kg, 6 h, dose level Low): 2.2 g
ALP [2]: 794.8 IU/L
ALT [2]: 30.8 IU/L
AST [2]: 55.6 IU/L
BUN [2]: 17.4 mg/dL
CRE [2]: 0.6 mg/dL
DBIL [2]: 0.028 mg/dL
GLC [2]: 192.4 mg/dL
IP [2]: 9.6 mg/dL
K [2]: 4.9 meq/L
LDH [2]: 73.8 IU/L
Na [2]: 138.6 meq/L
PL [2]: 130.6 mg/dL
RALB [2]: 3.7 g/dL
TBIL [2]: 0.4 mg/dL
TC [2]: 69.8 mg/dL
TG [2]: 62.6 mg/dL
TP [2]: 5.3 g/dL
gamma-GTP [2]: 1.6 IU/L
TERMINAL_BW (100 mg/kg, 9 h, dose level Low): 220.6 g
APTT (100 mg/kg, 9 h, dose level Low): 16.3 s
Bas (100 mg/kg, 9 h, dose level Low): 0%
Eos (100 mg/kg, 9 h, dose level Low): 1%
Fbg (100 mg/kg, 9 h, dose level Low): 205.8 mg/dL
Hb (100 mg/kg, 9 h, dose level Low): 12.8 g/dL
Ht (100 mg/kg, 9 h, dose level Low): 38.8%
Lym (100 mg/kg, 9 h, dose level Low): 74%
MCH (100 mg/kg, 9 h, dose level Low): 21.6 pg
MCHC (100 mg/kg, 9 h, dose level Low): 33%
MCV (100 mg/kg, 9 h, dose level Low): 65.6 fL
Mono (100 mg/kg, 9 h, dose level Low): 5.4%
Neu (100 mg/kg, 9 h, dose level Low): 19.2%
PT (100 mg/kg, 9 h, dose level Low): 12.1 s
Plat (100 mg/kg, 9 h, dose level Low): 119.2 x10_4/uL
RBC (100 mg/kg, 9 h, dose level Low): 591.8 x10_4/ul
Ret (100 mg/kg, 9 h, dose level Low): 8.2%
KIDNEY_L (100 mg/kg, 9 h, dose level Low): 1 g
KIDNEY_R (100 mg/kg, 9 h, dose level Low): 1 g
KIDNEY_TOTAL (100 mg/kg, 9 h, dose level Low): 2 g
LIVER (100 mg/kg, 9 h, dose level Low): 9 g
ALP [3]: 891.4 IU/L
ALT [3]: 30.6 IU/L
AST [3]: 59.2 IU/L
BUN [3]: 13.4 mg/dL
CRE [3]: 0.4 mg/dL
DBIL [3]: 0.084 mg/dL
GLC [3]: 202.4 mg/dL
K [3]: 4.7 meq/L
LDH [3]: 71 IU/L
Na [3]: 138.6 meq/L
PL [3]: 122.4 mg/dL
RALB [3]: 3.6 g/dL
TBIL [3]: 0.3 mg/dL
TC [3]: 65.2 mg/dL
TG [3]: 55.8 mg/dL
TP [3]: 5.2 g/dL
gamma-GTP [3]: 1.8 IU/L
TERMINAL_BW [4]: 234.4 g
APTT [4]: 17.2 s
Bas [4]: 0%
Eos [4]: 1.4%
Hb [4]: 12.8 g/dL
Ht [4]: 38.4%
Lym [4]: 71.8%
MCH [4]: 21.1 pg
MCHC [4]: 33.2%
MCV [4]: 63.6 fL
Mono [4]: 6.4%
Neu [4]: 20%
PT [4]: 11.6 s
Plat [4]: 114.1 x10_4/uL
RBC [4]: 604.4 x10_4/ul
Ret [4]: 8.7%
WBC [4]: 82.6 x10_2/uL
KIDNEY_L [4]: 1.1 g
KIDNEY_R [4]: 1.1 g
KIDNEY_TOTAL [4]: 2.3 g
LIVER [4]: 11.3 g
ALT [5]: 40.8 IU/L
AST [5]: 68.8 IU/L
BUN [5]: 15.8 mg/dL
CRE [5]: 0.6 mg/dL
Ca [5]: 11.1 mg/dL
DBIL [5]: 0.058 mg/dL
GLC [5]: 189.4 mg/dL
IP [5]: 8.5 mg/dL
K [5]: 4.6 meq/L
LDH [5]: 113 IU/L
Na [5]: 139 meq/L
PL [5]: 147.6 mg/dL
RALB [5]: 4 g/dL
TBIL [5]: 0.3 mg/dL
TC [5]: 78.8 mg/dL
TG [5]: 92.8 mg/dL
TP [5]: 5.8 g/dL
